In patent US10206937B2, “Boronic acid derivatives and therapeutic uses thereof” (Qpex Biopharma, Inc., priority 2014, dated 2019):

Tests used:
NDM-1 [1] = molecular target: T1, NDM-1 (Klebsiella pneumoniae, UniProt C7C422); assay: biochemical; details: cleavage of imipenem (100 uM) by NDM-1; read-out: Ki, Imipenem
NDM-1 [2] = molecular target: T1, NDM-1; assay: Inhibition of purified class B carbapenemase NDM-1 (Ki, imipenem substrate); type: biochemical; details: NDM-1, substrate imipenem; read-out: Ki NDM-1, Imipenem
VIM-1 = molecular target: T2, VIM-1 (Pseudomonas aeruginosa, UniProt A0A0F7KYQ8); assay: biochemical; details: cleavage of nitrocefin (200 uM) by VIM-1 supernatant
T2 construct: made in house; host or cells: ECM6711 strain carrying pUCP24-VIM-1 plasmid; culture supernatant used unpurified

[3] = molecular target: T3, purified class A, C and D enzymes (UniProt P0AD64, L31Q/G234S/E235K, species not given); type: biochemical; details: read-out: Ki (SHV-12, NCF); purified SHV-12; nitrocefin reporter substrate
T3 construct: Ki (SHV-12, NCF); other: purified SHV-12; nitrocefin reporter substrate
T3 sequence (P0AD64 1-286 L31Q/G234S/E235K): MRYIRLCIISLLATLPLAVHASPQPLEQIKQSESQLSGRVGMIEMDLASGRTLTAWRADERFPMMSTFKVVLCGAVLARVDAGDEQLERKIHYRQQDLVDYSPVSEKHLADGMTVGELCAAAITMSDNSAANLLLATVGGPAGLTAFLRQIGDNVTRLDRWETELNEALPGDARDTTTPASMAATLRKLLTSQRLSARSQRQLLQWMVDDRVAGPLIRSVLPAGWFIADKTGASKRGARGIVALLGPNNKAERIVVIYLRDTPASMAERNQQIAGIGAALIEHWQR

[4] = molecular target: T4, purified class A, C and D enzymes (UniProt Q9F663); type: biochemical; details: read-out: Ki (KPC-2, NCF); purified KPC-2; nitrocefin reporter substrate
T4 construct: rows headed: Ki (KPC-2, NCF); other: purified KPC-2; nitrocefin reporter substrate

[5] = molecular target: purified class A, C and D enzymes (Enterobacter cloacae, UniProt P05364); type: biochemical; details: purified P99/AmpC of ECL; nitrocefin reporter substrate
[6] = molecular target: T5, purified class A, C and D enzymes (UniProt Q6XEC0); type: biochemical; details: read-out: Ki (OXA-48, NCF); purified OXA-48; nitrocefin reporter substrate
T5 construct: rows headed: Ki (OXA-48, NCF); other: purified OXA-48; nitrocefin reporter substrate

[7] = molecular target: purified class A, C and D enzymes (Escherichia coli, UniProt Q9L5C7); type: biochemical; details: purified CTX-M-14; nitrocefin reporter substrate
Sequence of purified class A, C and D enzymes (Escherichia coli, UniProt Q9L5C7) (Q9L5C7 entry or part of it): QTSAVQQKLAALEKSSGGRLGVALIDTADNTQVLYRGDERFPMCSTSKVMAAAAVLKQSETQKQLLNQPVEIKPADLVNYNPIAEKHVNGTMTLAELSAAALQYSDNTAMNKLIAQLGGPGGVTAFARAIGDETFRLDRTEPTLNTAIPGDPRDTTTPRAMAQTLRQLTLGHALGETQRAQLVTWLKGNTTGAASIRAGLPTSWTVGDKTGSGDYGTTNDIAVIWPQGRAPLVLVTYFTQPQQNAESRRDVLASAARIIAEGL

Sequence of purified class A, C and D enzymes (Enterobacter cloacae, UniProt P05364) (P05364 21-381): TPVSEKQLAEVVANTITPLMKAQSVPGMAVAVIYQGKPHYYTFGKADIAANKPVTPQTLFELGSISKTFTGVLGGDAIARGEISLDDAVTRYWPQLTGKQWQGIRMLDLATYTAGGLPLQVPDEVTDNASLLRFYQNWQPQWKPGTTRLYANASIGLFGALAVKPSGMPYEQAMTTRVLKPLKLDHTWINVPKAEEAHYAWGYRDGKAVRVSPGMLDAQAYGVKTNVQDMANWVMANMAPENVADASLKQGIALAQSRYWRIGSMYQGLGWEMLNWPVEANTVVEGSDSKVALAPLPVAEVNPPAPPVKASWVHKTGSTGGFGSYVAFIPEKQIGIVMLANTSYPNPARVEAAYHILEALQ
T1 sequence (C7C422 29-270, looked up, species assumed): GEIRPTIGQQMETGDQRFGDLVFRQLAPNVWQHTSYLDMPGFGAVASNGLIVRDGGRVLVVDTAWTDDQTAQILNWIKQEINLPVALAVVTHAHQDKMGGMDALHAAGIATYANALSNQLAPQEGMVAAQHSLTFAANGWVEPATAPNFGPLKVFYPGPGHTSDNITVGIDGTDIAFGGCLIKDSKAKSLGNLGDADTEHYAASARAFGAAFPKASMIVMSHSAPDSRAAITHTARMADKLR

Row | Compound | Ki (NDM-1 [1]) [nM] | Ki (NDM-1 [2]) [nM] | IC50 (VIM-1) [nM] | Ki [3] [nM] | Ki [4] [nM] | Ki (P99/AmpC of ECL, NCF) [5] | Ki [6] [nM] | Ki (CTX-M-14, NCF) [7]
1 | CSc1ccc2c(c1C(=O)O)OB(O)[C@@H](Sc1nncn1C)C2 [Compound 29, (R)-2-hydroxy-3-(4-methyl-4H-1,2,4-triazol-3-ylthio)-7-(methylthio)-3,4-dihydro-2H-benzo[e][1,2]oxaborinine-8-carboxylic acid] | 10 to 100 | 10 to 100 | < 1000 | < 100 | 100 to 1000 | Y (0.1 μM to 1 μM) | < 100 | X (Less than 0.1 μM)
2 | Cc1ccc2c(c1C(=O)O)OB(O)[C@@H](Sc1nnc(N)s1)C2 [Compound 31, (R)-3-(5-amino-1,3,4-thiadiazol-2-ylthio)-2-hydroxy-7-methyl-3,4-dihydro-2H-benzo[e][1,2]oxaborinine-8-carboxylic acid] | > 100 | > 100 | ≥ 1000 | < 100 | 100 to 1000 | Y (0.1 μM to 1 μM) | < 100 | X (Less than 0.1 μM)
3 | COc1cc(OC)c(C(=O)O)c2c1C[C@H](Sc1nnc(N)s1)B(O)O2 [Compound 32, (R)-3-(5-amino-1,3,4-thiadiazol-2-ylthio)-2-hydroxy-5,7-dimethoxy-3,4-dihydro-2H-benzo[e][1,2]oxaborinine-8-carboxylic acid] | 10 to 100 | 10 to 100 | ≥ 1000 | < 100 | < 100 | X (Less than 0.1 μM) | < 100 | X (Less than 0.1 μM)
4 | Nc1nnc(S[C@H]2Cc3c(F)cc(F)c(C(=O)O)c3OB2O)s1 [Compound 33, (R)-3-(5-amino-1,3,4-thiadiazol-2-ylthio)-5,7-difluoro-2-hydroxy-3,4-dihydro-2H-benzo[e][1,2]oxaborinine-8-carboxylic acid] | > 100 | 10 to 100 | ≥ 1000 | < 100 | 100 to 1000 | X (Less than 0.1 μM) | < 100 | X (Less than 0.1 μM)
5 | C[S+]([O-])c1ccc2c(c1C(=O)O)OB(O)[C@@H](Sc1nnc(N)s1)C2 (stereo partly drawn) [Compound 34, (3R)-3-(5-amino-1,3,4-thiadiazol-2-ylthio)-2-hydroxy-7-(methylsulfinyl)-3,4-dihydro-2H-benzo[e][1,2]oxaborinine-8-carboxylic acid] | 10 to 100 | 10 to 100 | < 1000 | < 100 | 100 to 1000 | X (Less than 0.1 μM) | < 100 | X (Less than 0.1 μM)
6 | COCc1ccc2c(c1C(=O)O)OB(O)[C@@H](Sc1nnc(N)s1)C2 [Compound 35, (R)-3-(5-amino-1,3,4-thiadiazol-2-ylthio)-2-hydroxy-7-(methoxymethyl)-3,4-dihydro-2H-benzo[e][1,2]oxaborinine-8-carboxylic acid] | 10 to 100 | 10 to 100 | < 1000 | < 100 | < 100 | Y (0.1 μM to 1 μM) | < 100 | X (Less than 0.1 μM)
7 | Nc1nnc(S[C@H]2Cc3ccc(Cl)c(C(=O)O)c3OB2O)s1 [Compound 36, (R)-3-(5-amino-1,3,4-thiadiazol-2-ylthio)-7-chloro-2-hydroxy-3,4-dihydro-2H-benzo[e][1,2]oxaborinine-8-carboxylic acid] | 10 to 100 | 10 to 100 | ≥ 1000 | < 100 | < 100 | Z (Greater than 1 μM) | < 100 | X (Less than 0.1 μM)
8 | Nc1nnc(S[C@H]2Cc3cc(F)c(F)c(C(=O)O)c3OB2O)s1 [Compound 37, (R)-3-(5-amino-1,3,4-thiadiazol-2-ylthio)-6,7-difluoro-2-hydroxy-3,4-dihydro-2H-benzo[e][1,2]oxaborinine-8-carboxylic acid] | 10 to 100 | 10 to 100 | ≥ 1000 | < 100 | < 100 | Z (Greater than 1 μM) | < 100 | X (Less than 0.1 μM)
9 | Nc1nnc(S[C@H]2Cc3c(F)c(F)c(F)c(C(=O)O)c3OB2O)s1 [Compound 38, (R)-3-(5-amino-1,3,4-thiadiazol-2-ylthio)-5,6,7-trifluoro-2-hydroxy-3,4-dihydro-2H-benzo[e][1,2]oxaborinine-8-carboxylic acid] | > 100 | > 100 | ≥ 1000 | < 100 | > 1000 | Y (0.1 μM to 1 μM) | < 100 | X (Less than 0.1 μM)
10 | COc1ccc2c(c1C(=O)O)OB(O)[C@@H](Sc1c[nH]nn1)C2 [Compound 39, (R)-3-(1H-1,2,3-triazol-4-ylthio)-2-hydroxy-7-methoxy-3,4-dihydro-2H-benzo[e][1,2]oxaborinine-8-carboxylic acid] | > 100 | > 100 | < 1000 | < 100 | < 100 | Y (0.1 μM to 1 μM) | < 100 | X (Less than 0.1 μM)
11 | COc1ccc2c(c1C(=O)O)OB(O)[C@@H](Sc1ncn(CCCC(=O)O)n1)C2 [Compound 40, (R)-3-(1-(3-carboxypropyl)-1H-1,2,4-triazol-3-ylthio)-2-hydroxy-7-methoxy-3,4-dihydro-2H-benzo[e][1,2]oxaborinine-8-carboxylic acid] | > 100 | > 100 | ≥ 1000 | < 100 | < 100 | X (Less than 0.1 μM) | < 100 | X (Less than 0.1 μM)
12 | COc1ccc2c(c1C(=O)O)OB(O)[C@@H](Sc1nncn1CCCC(=O)O)C2 [Compound 41, (R)-3-(4-(3-carboxypropyl)-4H-1,2,4-triazol-3-ylthio)-2-hydroxy-7-methoxy-3,4-dihydro-2H-benzo[e][1,2]oxaborinine-8-carboxylic acid] | < 10 | < 10 | < 1000 | < 100 | < 100 | X (Less than 0.1 μM) | < 100 | X (Less than 0.1 μM)
13 | COc1c(Cl)cc2c(c1C(=O)O)OB(O)[C@@H](Sc1nnc(N)s1)C2 [Compound 42, (R)-3-(5-amino-1,3,4-thiadiazol-2-ylthio)-6-chloro-2-hydroxy-7-methoxy-3,4-dihydro-2H-benzo[e][1,2]oxaborinine-8-carboxylic acid] | < 10 | < 10 | < 1000 | < 100 | 100 to 1000 | Y (0.1 μM to 1 μM) | < 100 | X (Less than 0.1 μM)
14 | COc1ccc2c(c1C(=O)O)OB(O)[C@@H](SCCc1nnc(N)s1)C2 [Compound 43, (R)-3-(2-(5-amino-1,3,4-thiadiazol-2-yl)ethylthio)-2-hydroxy-7-methoxy-3,4-dihydro-2H-benzo[e][1,2]oxaborinine-8-carboxylic acid] | < 10 | < 10 | < 1000 | < 100 | < 100 | X (Less than 0.1 μM) | < 100 | X (Less than 0.1 μM)
